Laboratory results published in ChEMBL document CHEMBL4043269, “Synthesis and structure activity relationships of carbamimidoylcarbamate derivatives as novel vascular adhesion protein-1 inhibitors” (Bioorg Med Chem, 2017).

How the values were obtained:
[1] = target: T1, Amine oxidase [copper-containing] 3 (Homo sapiens, UniProt Q16853); experiment: Inhibition of human VAP-1 expressed in CHO cells preincubated for 20 mins followed by [14C]-benzylamine addition measured after 1 hr by scintillation spectrometric analysis; type: cell-based
T1 sequence (Q16853 whole entry): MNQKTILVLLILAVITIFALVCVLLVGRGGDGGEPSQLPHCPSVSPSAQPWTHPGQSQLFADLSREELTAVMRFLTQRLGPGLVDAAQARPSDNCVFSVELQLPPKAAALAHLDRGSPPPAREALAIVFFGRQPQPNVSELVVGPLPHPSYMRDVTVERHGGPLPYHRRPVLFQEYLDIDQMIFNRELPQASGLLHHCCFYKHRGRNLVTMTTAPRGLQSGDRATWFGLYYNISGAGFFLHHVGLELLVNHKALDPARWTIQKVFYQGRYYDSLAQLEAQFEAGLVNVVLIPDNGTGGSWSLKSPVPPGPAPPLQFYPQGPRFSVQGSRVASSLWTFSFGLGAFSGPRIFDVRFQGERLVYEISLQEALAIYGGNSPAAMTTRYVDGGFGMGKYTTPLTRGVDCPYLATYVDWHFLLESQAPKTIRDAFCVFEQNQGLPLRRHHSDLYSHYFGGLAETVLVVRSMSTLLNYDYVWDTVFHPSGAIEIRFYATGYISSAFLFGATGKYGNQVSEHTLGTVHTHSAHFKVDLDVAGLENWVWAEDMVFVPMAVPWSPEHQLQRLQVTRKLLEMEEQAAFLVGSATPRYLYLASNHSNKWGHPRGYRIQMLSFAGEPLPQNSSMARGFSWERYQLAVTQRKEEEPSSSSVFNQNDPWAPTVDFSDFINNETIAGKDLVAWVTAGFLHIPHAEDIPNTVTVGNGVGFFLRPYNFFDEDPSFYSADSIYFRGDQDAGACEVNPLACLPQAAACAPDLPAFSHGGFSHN

[2] = Aqueous solubility of compound in Japanese pharmacopoeia second fluid at pH 6.8 at 130 uM after 20 hrs by HPLC analysis; type: physicochemical
[3] = Stability in Beagle dog plasma assessed as parent compound remaining at 2 uM after 6 hrs by LC-MS/MS analysis relative to initial concentration; type: ADME, cell-free, Canis lupus familiaris; conditions: read-out: Stability
[4] = Stability in cynomolgus monkey plasma assessed as parent compound remaining at 2 uM after 6 hrs by LC-MS/MS analysis relative to initial concentration; type: ADME, cell-free, Macaca fascicularis; conditions: read-out: Stability
[5] = Stability in human plasma assessed as parent compound remaining at 2 uM after 6 hrs by LC-MS/MS analysis relative to initial concentration; type: ADME, cell-free; conditions: read-out: Stability
[6] = Stability in Wistar rat plasma assessed as parent compound remaining at 2 uM after 6 hrs by LC-MS/MS analysis relative to initial concentration; type: ADME, cell-free; conditions: read-out: Stability
[7] = target: T2, CYP1A2 (Homo sapiens, UniProt P05177); experiment: Inhibition of CYP1A2 in human liver microsomes using phenacetin as substrate assessed as residual activity at 5 uM after 20 mins by HPLC analysis; type: ADME; conditions: probe phenacetin, read-out: Activity
T2 sequence (P05177 whole entry): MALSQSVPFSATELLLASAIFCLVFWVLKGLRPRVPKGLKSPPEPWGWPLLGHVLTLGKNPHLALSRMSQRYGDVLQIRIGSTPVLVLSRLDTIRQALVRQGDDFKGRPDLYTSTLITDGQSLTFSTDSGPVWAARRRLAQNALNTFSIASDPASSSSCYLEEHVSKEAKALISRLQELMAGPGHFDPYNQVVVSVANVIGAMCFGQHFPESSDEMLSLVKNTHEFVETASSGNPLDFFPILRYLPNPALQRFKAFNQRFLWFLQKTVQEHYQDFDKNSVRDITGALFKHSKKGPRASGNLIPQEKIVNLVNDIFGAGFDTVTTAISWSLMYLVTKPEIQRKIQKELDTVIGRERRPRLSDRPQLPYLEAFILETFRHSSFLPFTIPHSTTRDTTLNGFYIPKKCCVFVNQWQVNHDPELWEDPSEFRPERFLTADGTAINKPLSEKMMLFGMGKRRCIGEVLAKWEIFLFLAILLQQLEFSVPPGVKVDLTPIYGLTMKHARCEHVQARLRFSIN

[8] = target: T3, CYP2C8 (Homo sapiens, UniProt P10632); experiment: Inhibition of CYP2C8 in human liver microsomes using amodiaquine as substrate assessed as residual activity at 5 uM after 20 mins by HPLC analysis; type: ADME; conditions: probe amodiaquine, read-out: Activity
T3 sequence (P10632 whole entry): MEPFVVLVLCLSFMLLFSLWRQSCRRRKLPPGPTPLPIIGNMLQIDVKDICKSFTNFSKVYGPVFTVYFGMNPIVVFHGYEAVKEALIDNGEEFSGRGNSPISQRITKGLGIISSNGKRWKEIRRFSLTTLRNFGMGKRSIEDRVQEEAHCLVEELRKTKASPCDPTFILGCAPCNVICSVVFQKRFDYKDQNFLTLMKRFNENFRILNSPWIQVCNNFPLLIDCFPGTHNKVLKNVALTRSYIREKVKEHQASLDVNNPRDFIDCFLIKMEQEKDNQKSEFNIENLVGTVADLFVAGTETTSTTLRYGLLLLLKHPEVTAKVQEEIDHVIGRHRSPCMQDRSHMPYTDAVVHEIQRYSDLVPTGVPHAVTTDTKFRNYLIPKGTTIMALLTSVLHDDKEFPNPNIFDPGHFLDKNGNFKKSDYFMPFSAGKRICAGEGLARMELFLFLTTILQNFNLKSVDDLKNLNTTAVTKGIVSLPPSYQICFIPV

[9] = target: CYP2C19 (Homo sapiens, UniProt P33261); experiment: Inhibition of CYP2C19 in human liver microsomes using S-mephenytoin as substrate assessed as residual activity at 5 uM after 20 mins by HPLC analysis; type: ADME; conditions: probe S-mephenytoin, read-out: Activity
[10] = target: CYP2D6 (Homo sapiens, UniProt P10635); experiment: Inhibition of CYP2D6 in human liver microsomes using dextromethorphan as substrate assessed as residual activity at 5 uM after 20 mins by HPLC analysis; type: ADME; conditions: probe dextromethorphan, read-out: Activity
[11] = target: CYP3A4 (Homo sapiens, UniProt P08684); experiment: Inhibition of CYP3A4 in human liver microsomes using midazolam as substrate assessed as residual activity at 5 uM after 20 mins by HPLC analysis; type: ADME; conditions: probe midazolam, read-out: Activity
[12] = target: CYP2C9 (Homo sapiens, UniProt P11712); experiment: Inhibition of CYP2C9 in human liver microsomes using diclofenac as substrate assessed as residual activity at 5 uM after 20 mins by HPLC analysis; type: ADME; conditions: probe diclofenac, read-out: Activity
Chain of CYP2C9 (P11712 whole entry): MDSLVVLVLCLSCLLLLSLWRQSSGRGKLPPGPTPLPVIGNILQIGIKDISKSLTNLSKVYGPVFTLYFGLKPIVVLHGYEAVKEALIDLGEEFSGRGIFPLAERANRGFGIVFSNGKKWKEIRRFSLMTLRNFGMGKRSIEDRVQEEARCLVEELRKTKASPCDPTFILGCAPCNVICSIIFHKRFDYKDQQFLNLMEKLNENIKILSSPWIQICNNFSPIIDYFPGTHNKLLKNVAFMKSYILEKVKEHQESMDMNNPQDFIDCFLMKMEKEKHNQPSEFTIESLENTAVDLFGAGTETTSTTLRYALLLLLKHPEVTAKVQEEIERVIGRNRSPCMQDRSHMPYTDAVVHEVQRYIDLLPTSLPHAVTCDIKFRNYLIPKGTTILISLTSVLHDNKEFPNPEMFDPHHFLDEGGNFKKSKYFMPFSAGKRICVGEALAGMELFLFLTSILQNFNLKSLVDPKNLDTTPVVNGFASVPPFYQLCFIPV

Chain of CYP2D6 (P10635 whole entry): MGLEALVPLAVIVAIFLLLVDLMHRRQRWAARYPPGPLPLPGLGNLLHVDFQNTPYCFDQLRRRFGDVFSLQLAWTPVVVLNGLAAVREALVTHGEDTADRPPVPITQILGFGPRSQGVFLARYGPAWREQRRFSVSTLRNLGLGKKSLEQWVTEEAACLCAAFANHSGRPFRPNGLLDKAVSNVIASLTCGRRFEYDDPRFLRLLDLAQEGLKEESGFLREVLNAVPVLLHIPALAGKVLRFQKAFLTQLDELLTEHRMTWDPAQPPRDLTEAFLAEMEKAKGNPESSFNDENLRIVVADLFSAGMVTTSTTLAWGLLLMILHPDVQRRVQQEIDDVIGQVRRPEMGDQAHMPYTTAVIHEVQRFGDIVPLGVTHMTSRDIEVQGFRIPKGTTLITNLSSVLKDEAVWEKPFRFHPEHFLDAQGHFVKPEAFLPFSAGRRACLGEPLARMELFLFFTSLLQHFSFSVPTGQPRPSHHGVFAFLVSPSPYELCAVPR
Chain of CYP2C19 (P33261 whole entry): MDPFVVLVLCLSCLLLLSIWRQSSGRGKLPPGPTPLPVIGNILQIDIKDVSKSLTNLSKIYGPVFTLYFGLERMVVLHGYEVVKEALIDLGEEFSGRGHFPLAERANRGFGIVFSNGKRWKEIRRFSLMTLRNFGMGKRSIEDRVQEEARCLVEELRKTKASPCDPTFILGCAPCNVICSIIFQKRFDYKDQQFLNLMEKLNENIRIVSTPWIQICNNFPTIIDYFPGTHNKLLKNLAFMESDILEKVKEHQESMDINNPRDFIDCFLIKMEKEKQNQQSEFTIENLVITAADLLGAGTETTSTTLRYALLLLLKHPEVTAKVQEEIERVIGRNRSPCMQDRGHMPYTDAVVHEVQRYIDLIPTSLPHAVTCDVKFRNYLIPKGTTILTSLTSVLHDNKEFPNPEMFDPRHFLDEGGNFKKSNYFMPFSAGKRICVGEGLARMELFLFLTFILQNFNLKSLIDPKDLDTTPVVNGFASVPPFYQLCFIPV
Chain of CYP3A4 (P08684 whole entry): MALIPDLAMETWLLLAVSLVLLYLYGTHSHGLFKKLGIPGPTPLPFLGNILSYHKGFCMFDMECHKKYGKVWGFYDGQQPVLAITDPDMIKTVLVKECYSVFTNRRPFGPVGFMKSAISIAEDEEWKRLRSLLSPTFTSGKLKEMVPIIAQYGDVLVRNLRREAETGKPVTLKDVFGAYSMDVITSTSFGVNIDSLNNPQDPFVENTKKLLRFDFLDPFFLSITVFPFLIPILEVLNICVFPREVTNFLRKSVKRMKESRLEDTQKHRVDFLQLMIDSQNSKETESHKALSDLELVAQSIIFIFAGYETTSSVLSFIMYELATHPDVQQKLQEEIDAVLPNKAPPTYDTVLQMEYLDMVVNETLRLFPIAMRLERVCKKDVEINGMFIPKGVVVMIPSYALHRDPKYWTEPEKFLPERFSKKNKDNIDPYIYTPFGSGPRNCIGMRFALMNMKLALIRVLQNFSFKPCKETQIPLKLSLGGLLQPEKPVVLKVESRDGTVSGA

Structure (SMILES) | IC50 [1] [µM] | solubility at 20 h, 130 µM [2] [µM] | activity at 20 min, 5 µM [7] [%] | activity at 20 min, 5 µM [8] [%] | activity at 20 min, 5 µM [9] [%] | activity at 20 min, 5 µM [10] [%] | activity at 20 min, 5 µM [11] [%] | further results
Cl.Cl.Cl.N=C(N)NC(=O)OCc1cccc(N2CCC(N3CCOCC3)CC2)c1 | 0.16 | ≥ 100 | – | – | – | – | – | –
N=C(N)Nc1cccc(CCc2cnc(N3CCOCC3)nc2)c1 | > 10 | – | – | – | – | – | – | –
N=C(N)NC(=O)OCc1cccc(N2CCN(c3cccnc3)CC2)c1F.O=C(O)C(O)C(O)C(=O)O | – | 31 | 94 | 99 | 96 | 96 | 61 | –
N=C(N)NC(=O)Cc1cccc(CCc2cnc(N3CCOCC3)nc2)c1 | 0.054 | – | – | – | – | – | – | –
N=C(N)NC(=O)OCc1ccc(F)c(-c2cnc(N3CCOCC3)nc2)c1F.N=C(N)NC(=O)OCc1ccc(F)c(-c2cnc(N3CCOCC3)nc2)c1F.O=C(O)C(O)C(O)C(=O)O | 0.077 | 17 | – | – | – | – | – | –
Cl.N=C(N)NC(=O)OCc1cccc(-c2cnc(N3CCOCC3)nc2)c1F | 0.0092 | 7.5 | – | – | – | – | – | –
Cc1ncccc1OC1CN(c2cccc(COC(=O)NC(=N)N)c2F)C1.O=C(O)C(O)C(O)C(=O)O | 0.04 | ≥ 100 | 89 | 46 | 91 | 77 | 96 | –
Cl.Cl.Cl.N=C(N)NC(=O)OCc1cccc(N2CCN(c3ccccn3)CC2)c1 | 0.14 | ≥ 100 | – | – | – | – | – | –
N=C(N)NCCc1cccc(CCc2cnc(N3CCOCC3)nc2)c1 | > 10 | – | – | – | – | – | – | –
Cl.Cl.Cl.N=C(N)NC(=O)OCc1cccc(N2CCN(c3ccncc3)CC2)c1 | 0.013 | ≥ 100 | 86 | 25 | 91 | 13 | 80 | activity at 20 min, 5 µM [12]: 80%
N=C(N)Nc1ccc(CCc2cnc(N3CCOCC3)nc2)cc1 | 5.1 | – | – | – | – | – | – | –
N=C(N)NC(=O)OCc1cccc(N2CCC(Oc3cccnc3)CC2)c1F.O=C(O)C(O)C(O)C(=O)O | 0.045 | ≥ 100 | 93 | 61 | 96 | 11 | 32 | –
Cl.Cl.N=C(N)NC(=O)OCc1cccc(-c2cnc(N3CCOCC3)nc2)c1Cl | 0.6 | 8.2 | – | – | – | – | – | –
Cl.Cl.Cl.N=C(N)NC(=O)OCc1cccc(N2CCN(c3cccnc3)CC2)c1 | 0.031 | ≥ 100 | 55 | 92 | 99 | 68 | 64 | activity at 20 min, 5 µM [12]: 101%
N=C(N)NC(=O)OCc1cccc(N2CC(Oc3cccnc3)C2)c1F.N=C(N)NC(=O)OCc1cccc(N2CC(Oc3cccnc3)C2)c1F.O=C(O)C(O)C(O)C(=O)O | 0.024 | ≥ 100 | 84 | 78 | 66 | 16 | 56 | –

Continued, in another order:

IC50 [1] [µM] | solubility at 20 h, 130 µM [2] [µM] | activity at 20 min, 5 µM [7] [%] | activity at 20 min, 5 µM [8] [%] | activity at 20 min, 5 µM [9] [%] | activity at 20 min, 5 µM [10] [%] | activity at 20 min, 5 µM [11] [%] | Structure (SMILES) | further results
0.11 | ≥ 100 | – | – | – | – | – | N=C(N)NC(=O)OCc1cccc(N2CCN(C3CCOCC3)CC2)c1.O=C(O)C(O)C(O)C(=O)O | –
0.41 | 34 | – | – | – | – | – | Cc1c(COC(=O)NC(=N)N)cccc1-c1cnc(N2CCOCC2)nc1.O=C(O)C(O)C(O)C(=O)O | –
0.047 | 8.3 | 96 | 83 | 102 | 93 | 109 | N=C(N)NC(=O)OCc1cccc(-c2cnc(N3CCOCC3)nc2)c1.O=C(O)C(O)C(O)C(=O)O | remaining at 6 h, 2 µM [3]: 98.3%; remaining at 6 h, 2 µM [4]: 103%; remaining at 6 h, 2 µM [5]: 101%; remaining at 6 h, 2 µM [6]: 105%
0.031 | ≥ 100 | – | – | – | – | – | CN(Cc1cccc(-c2cnc(N3CCOCC3)nc2)c1)C(=O)CN.O=C(O)C(O)C(O)C(=O)O | –
0.4 | 90 | – | – | – | – | – | Cc1nc(N2CCOCC2)ncc1-c1cccc(COC(=O)NC(=N)N)c1F.O=C(O)C(O)C(O)C(=O)O | –
0.53 | – | – | – | – | – | – | CN(Cc1cccc(-c2cnc(N3CCOCC3)nc2)c1)C(=O)NC(=N)N | –
0.099 | 68 | – | – | – | – | – | Cl.Cl.N=C(N)NC(=O)OCc1ccc(F)c(-c2cnc(N3CCOCC3)nc2)c1 | –
0.056 | – | – | – | – | – | – | N=C(N)NC(=O)Cc1cccc(-c2cnc(N3CCOCC3)nc2)c1 | –
